Reference: ChEMBL document CHEMBL6109152, “Harnessing the SPOP E3 Ubiquitin Ligase via a Bridged Proteolysis Targeting Chimera (PROTAC) Strategy for Targeted Protein Degradation” (J Med Chem, 2025)
Calls of active or inactive are those of the source. No cut-off for these calls is given here.

What was measured:
[1] = biological target: T1, Speckle-type POZ protein-Bromodomain-containing protein 4 (Homo sapiens, UniProt O60885+O43791); assay: PROTAC activity at SPOP/BRD4-L in human HT-29 cells assessed as induction of BRD4 long isoform degradation at 5 uM measured after >=48 hrs by Western blotting analysis; format: cell-based
T1 sequence (O43791 whole entry, looked up, other chains not shown, canonical isoform): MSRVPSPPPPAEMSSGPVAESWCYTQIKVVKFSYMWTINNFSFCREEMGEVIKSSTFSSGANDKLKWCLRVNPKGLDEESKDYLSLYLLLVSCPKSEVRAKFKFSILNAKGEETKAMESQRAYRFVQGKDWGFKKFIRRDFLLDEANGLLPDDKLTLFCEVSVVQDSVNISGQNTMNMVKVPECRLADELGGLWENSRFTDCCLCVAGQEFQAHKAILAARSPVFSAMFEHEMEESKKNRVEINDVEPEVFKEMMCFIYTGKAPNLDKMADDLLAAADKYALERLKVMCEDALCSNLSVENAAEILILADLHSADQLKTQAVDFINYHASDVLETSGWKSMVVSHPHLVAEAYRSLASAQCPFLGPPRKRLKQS

[2] = biological target: T2, Speckle-type POZ protein-Bromodomain-containing protein 3 (Homo sapiens) (UniProt Q15059+O43791); assay: PROTAC activity at SPOP/BRD3 in human HT-29 cells assessed as induction of BRD3 degradation by measuring fold change at 1.25 uM incubated for 24 hrs by Western blot analysis (reference value: 1.00); format: cell-based
T2 sequence (O43791 whole entry, looked up): as the sequence (O43791 whole entry, looked up, other chains not shown, canonical isoform) above
T2 sequence (Q15059 whole entry, looked up): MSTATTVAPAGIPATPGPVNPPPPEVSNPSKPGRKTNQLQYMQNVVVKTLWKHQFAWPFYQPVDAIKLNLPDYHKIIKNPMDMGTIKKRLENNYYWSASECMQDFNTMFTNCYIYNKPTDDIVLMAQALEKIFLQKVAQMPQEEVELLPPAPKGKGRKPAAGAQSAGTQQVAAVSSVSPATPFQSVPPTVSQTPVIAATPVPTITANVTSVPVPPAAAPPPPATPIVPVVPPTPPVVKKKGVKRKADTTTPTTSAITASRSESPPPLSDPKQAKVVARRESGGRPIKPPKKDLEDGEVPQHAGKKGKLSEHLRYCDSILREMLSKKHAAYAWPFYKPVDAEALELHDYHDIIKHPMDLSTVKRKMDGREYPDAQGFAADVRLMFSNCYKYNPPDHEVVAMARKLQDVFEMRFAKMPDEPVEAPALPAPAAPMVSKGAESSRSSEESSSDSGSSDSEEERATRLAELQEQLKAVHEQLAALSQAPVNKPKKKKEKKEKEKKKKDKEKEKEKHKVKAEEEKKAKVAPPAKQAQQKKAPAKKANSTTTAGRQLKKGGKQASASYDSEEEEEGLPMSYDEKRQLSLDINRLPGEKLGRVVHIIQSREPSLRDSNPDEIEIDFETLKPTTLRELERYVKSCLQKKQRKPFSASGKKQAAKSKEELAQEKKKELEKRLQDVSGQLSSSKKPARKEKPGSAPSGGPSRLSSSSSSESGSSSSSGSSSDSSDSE

[3] = biological target: T3, Bromodomain-containing protein 4 (Homo sapiens, UniProt O60885); assay: Inhibition of BRD4 in human HT-29 cells assessed as decrease in c-MYC protein level at 5 uM measured after 16 hrs by Western blot analysis relative to control; format: cell-based
[4] = biological target: T3, Bromodomain-containing protein 4; assay: Inhibition of BRD4 in human HT-29 cells assessed as decrease in c-MYC protein level at 5 uM measured after 2 hrs by Western blot analysis; format: cell-based
[5] = biological target: T4, Speckle-type POZ protein-Bromodomain-containing protein 2 (Homo sapiens) (UniProt P25440+O43791); assay: PROTAC activity at SPOP/BRD2 in human HT-29 cells assessed as induction of BRD2 degradation by measuring fold change at 1.25 uM incubated for 24 hrs by Western blot analysis (reference value: 1.00); format: cell-based
T4 sequence (O43791 whole entry, looked up): as the sequence (O43791 whole entry, looked up, other chains not shown, canonical isoform) above
T4 sequence (P25440 whole entry, looked up): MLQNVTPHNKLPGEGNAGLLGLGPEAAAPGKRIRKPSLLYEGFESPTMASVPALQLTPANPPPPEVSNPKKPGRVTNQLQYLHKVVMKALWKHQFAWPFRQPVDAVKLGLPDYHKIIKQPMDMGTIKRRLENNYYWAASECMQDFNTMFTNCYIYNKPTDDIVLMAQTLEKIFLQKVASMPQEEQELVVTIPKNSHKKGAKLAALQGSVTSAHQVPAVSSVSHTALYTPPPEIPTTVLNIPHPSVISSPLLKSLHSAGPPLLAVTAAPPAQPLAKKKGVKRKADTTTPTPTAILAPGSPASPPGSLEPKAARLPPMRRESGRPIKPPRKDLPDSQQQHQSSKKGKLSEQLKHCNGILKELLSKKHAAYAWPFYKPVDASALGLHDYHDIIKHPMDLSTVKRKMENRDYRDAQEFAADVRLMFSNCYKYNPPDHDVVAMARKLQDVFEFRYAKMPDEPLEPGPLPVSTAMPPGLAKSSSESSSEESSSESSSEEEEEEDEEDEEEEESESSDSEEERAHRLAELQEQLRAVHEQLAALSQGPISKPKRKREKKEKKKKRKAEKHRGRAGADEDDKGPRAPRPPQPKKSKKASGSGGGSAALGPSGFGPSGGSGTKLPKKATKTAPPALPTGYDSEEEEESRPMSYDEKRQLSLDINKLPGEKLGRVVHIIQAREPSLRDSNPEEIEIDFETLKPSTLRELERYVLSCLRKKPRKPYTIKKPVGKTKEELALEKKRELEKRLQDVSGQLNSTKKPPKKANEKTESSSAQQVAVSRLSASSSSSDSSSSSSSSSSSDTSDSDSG

[6] = biological target: T2, Speckle-type POZ protein-Bromodomain-containing protein 3 (Homo sapiens); assay: PROTAC activity at SPOP/BRD3 in human HT-29 cells assessed as induction of BRD3 degradation by measuring fold change at 0.313 uM incubated for 24 hrs by Western blot analysis (reference value: 1.00); format: cell-based
[7] = biological target: T3, Bromodomain-containing protein 4; assay: Inhibition of BRD4 in human HT-29 cells assessed as decrease in c-MYC protein level by measuring fold change at 0.156 uM incubated for 24 hrs by Western blot analysis (reference value: 1.00); format: cell-based
HT-29 [8] = assay: Downregulation of c-MYC mRNA level in human HT-29 cells at 5 to 10 uM incubated for 24 hrs by RT-qPCR analysis; format: functional, cell-based; settings: dose 5-10 µM
HT-29 [9] = assay: Effect on BRD4 long isoform mRNA level in human HT-29 cells at 1 to 10 uM incubated for 24 hrs by RT-qPCR analysis; format: functional, cell-based; settings: dose 1-10 µM
[10] = biological target: T2, Speckle-type POZ protein-Bromodomain-containing protein 3 (Homo sapiens); assay: PROTAC activity at SPOP/BRD3 in human HT-29 cells assessed as induction of BRD3 degradation by measuring fold change at 10 uM incubated for 24 hrs by Western blot analysis (reference value: 1.00); format: cell-based
[11] = biological target: T1, Speckle-type POZ protein-Bromodomain-containing protein 4; assay: PROTAC activity at SPOP/BRD4-S in human HT-29 cells assessed as induction of BRD4 short isoform degradation by measuring fold change at 10 uM incubated for 24 hrs by Western blotting analysis (reference value: 1.00); format: cell-based
[12] = biological target: T1, Speckle-type POZ protein-Bromodomain-containing protein 4; assay: PROTAC activity at SPOP/BRD4-L in human HT-29 cells assessed as induction of BRD4 long isoform degradation by measuring fold change at 0.625 uM incubated for 24 hrs by Western blotting analysis (reference value: 1.00); format: cell-based
[13] = biological target: T2, Speckle-type POZ protein-Bromodomain-containing protein 3 (Homo sapiens); assay: PROTAC activity at SPOP/BRD3 in human HT-29 cells assessed as induction of BRD3 degradation by measuring fold change at 2.5 uM incubated for 24 hrs by Western blot analysis (reference value: 1.00); format: cell-based
[14] = biological target: T1, Speckle-type POZ protein-Bromodomain-containing protein 4; assay: PROTAC activity at SPOP/BRD4-S in human HT-29 cells assessed as induction of BRD4 short isoform degradation by measuring fold change at 1.25 uM incubated for 24 hrs by Western blotting analysis (reference value: 1.00); format: cell-based
[15] = biological target: T1, Speckle-type POZ protein-Bromodomain-containing protein 4; assay: PROTAC activity at SPOP/BRD4-S in human HT-29 cells assessed as induction of BRD4 short isoform degradation by measuring maximal efficacy at 0.156 to 10 uM incubated for 24 hrs by Western blotting analysis relative to control; format: cell-based; settings: dose 0.156-10 µM
[16] = biological target: T1, Speckle-type POZ protein-Bromodomain-containing protein 4; assay: PROTAC activity at SPOP/BRD4-S in human HT-29 cells assessed as induction of BRD4 short isoform degradation by measuring fold change at 0.156 uM incubated for 24 hrs by Western blotting analysis (reference value: 1.00); format: cell-based
[17] = biological target: T2, Speckle-type POZ protein-Bromodomain-containing protein 3 (Homo sapiens); assay: PROTAC activity at SPOP/BRD3 in human HT-29 cells assessed as induction of BRD3 degradation at 5 uM measured after >=48 hrs by Western blot analysis; format: cell-based
[18] = biological target: T1, Speckle-type POZ protein-Bromodomain-containing protein 4; assay: PROTAC activity at SPOP/BRD4-L in human HT-29 cells assessed as induction of BRD4 long isoform degradation by measuring fold change at 2.5 uM incubated for 24 hrs by Western blotting analysis (reference value: 1.00); format: cell-based
[19] = biological target: T1, Speckle-type POZ protein-Bromodomain-containing protein 4; assay: PROTAC activity at SPOP/BRD4-S in human HT-29 cells assessed as induction of BRD4 short isoform degradation by measuring fold change at 0.313 uM incubated for 24 hrs by Western blotting analysis (reference value: 1.00); format: cell-based
[20] = biological target: T1, Speckle-type POZ protein-Bromodomain-containing protein 4; assay: PROTAC activity at SPOP/BRD4-L in human HT-29 cells assessed as induction of BRD4 long isoform degradation by measuring fold change at 0.313 uM incubated for 24 hrs by Western blotting analysis (reference value: 1.00); format: cell-based
HT-29 [21] = assay: Effect on BRD3 mRNA level in human HT-29 cells at 1 to 10 uM incubated for 24 hrs by RT-qPCR analysis; format: functional, cell-based; settings: dose 1-10 µM
[22] = biological target: T1, Speckle-type POZ protein-Bromodomain-containing protein 4; assay: PROTAC activity at SPOP/BRD4-S in human HT-29 cells assessed as induction of BRD4 short isoform degradation at 5 uM measured after 16 to 72 hrs by Western blotting analysis; format: cell-based; settings: time 16-72 hrs
[23] = biological target: T1, Speckle-type POZ protein-Bromodomain-containing protein 4; assay: PROTAC activity at SPOP/BRD4-S in human HT-29 cells assessed as induction of BRD4 short isoform degradation at 5 uM preincubated with MLN4924 for 2 hrs followed by compound addition and measured after 24 hrs by Western blot analysis; format: cell-based
[24] = biological target: T3, Bromodomain-containing protein 4; assay: Inhibition of BRD4 in human HT-29 cells assessed as decrease in c-MYC protein level by measuring fold change at 0.625 uM incubated for 24 hrs by Western blot analysis (reference value: 1.00); format: cell-based
HEK293T = assay: Binding affinity to BRD4-L/GLP/SPOP in HEK293T cells assessed as compound-BRD4-GLP-SPOP quaternary complex formation at 20 to 100 uM incubated for 1 hrs by pulldown based Western blot analysis; format: cell-based; settings: Homo sapiens, dose 20-100 µM
[25] = biological target: T3, Bromodomain-containing protein 4; assay: Inhibition of BRD4 in human HT-29 cells assessed as decrease in c-MYC protein level by measuring fold change at 10 uM incubated for 24 hrs by Western blot analysis (reference value: 1.00); format: cell-based
[26] = biological target: T3, Bromodomain-containing protein 4; assay: Inhibition of BRD4 in human HT-29 cells assessed as decrease in c-MYC protein level by measuring fold change at 1.25 uM incubated for 24 hrs by Western blot analysis (reference value: 1.00); format: cell-based
[27] = biological target: T4, Speckle-type POZ protein-Bromodomain-containing protein 2 (Homo sapiens); assay: PROTAC activity at SPOP/BRD2 in human MDA-MB-231 cells assessed as induction of BRD2 degradation at 0.1 to 5 uM incubated for 24 hrs by Western blot analysis; format: cell-based; settings: dose 0.1-5 µM

Activity [1]: Active | fold change (FC) [2]: 0.7 | inhibition [3]: 100% | inhibition [4]: Active | fold change (FC) [5]: 1.1 | fold change (FC) [6]: 0.9 | fold change (FC) [7]: 1 | fold change (FC) [10]: 0.5 | fold change (FC) [11]: 0.3 | fold change (FC) [12]: 1.2 | fold change (FC) [13]: 0.7 | fold change (FC) [14]: 0.8 | Emax [15]: 63% | fold change (FC) [16]: 1 | Activity [17]: Active | fold change (FC) [18]: 1.2 | fold change (FC) [19]: 1.2 | fold change (FC) [20]: 1.3 | Activity [22]: Active | Activity [23]: inactive | fold change (FC) [24]: 0.7 | fold change (FC) [25]: 0.03 | fold change (FC) [26]: 0.4 | Activity [27]: Active
Compound: COc1cc2c(NC3CCN(CCCC(=O)NCCCCCCCCCCNC(=O)C[C@@H]4N=C(c5ccc(Cl)cc5)c5c(sc(C)c5C)-n5c(C)nnc54)CC3)cc(N3CCOCC3)nc2cc1OCCCN1CCCC1
Activity (HT-29 [8]): Active | Activity (HT-29 [9]): inactive | Activity (HT-29 [21]): inactive | Activity (HEK293T): Active
